Experiment: isobaric coefficient of expansion
Settings: Liquid, Micro DSCII

CCCC[n+]1ccn(C)c1.O=S(=O)([N-]S(=O)(=O)C(F)(F)F)C(F)(F)F
isobaric coefficient of expansion
Settings	5000 kPa	10000 kPa	15000 kPa	20000 kPa	25000 kPa	30000 kPa	35000 kPa	40000 kPa	45000 kPa	50000 kPa
278.15 K	0.000672 1/K	0.000661 1/K	0.000651 1/K	0.000643 1/K	0.000632 1/K	0.000627 1/K	0.000618 1/K	0.000612 1/K	0.000602 1/K	0.000594 1/K
288.15 K	0.000665 1/K	0.000656 1/K	0.000646 1/K	0.000638 1/K	0.000632 1/K	0.000622 1/K	0.000615 1/K	0.000606 1/K	0.000599 1/K	0.000594 1/K
298.15 K	0.000662 1/K	0.000653 1/K	0.000642 1/K	0.000633 1/K	0.000626 1/K	0.000616 1/K	0.000607 1/K	0.000599 1/K	0.000592 1/K	0.000586 1/K
308.15 K	0.000657 1/K	0.000647 1/K	0.000636 1/K	0.000627 1/K	0.000617 1/K	0.00061 1/K	0.000602 1/K	0.000595 1/K	0.000586 1/K	0.000578 1/K
318.15 K	0.00065 1/K	0.000646 1/K	0.000634 1/K	0.000623 1/K	0.000614 1/K	0.000605 1/K	0.000597 1/K	0.000588 1/K	0.000581 1/K	0.000573 1/K
328.15 K	0.000665 1/K	0.000649 1/K	0.000636 1/K	0.000625 1/K	0.000614 1/K	0.000603 1/K	0.000595 1/K	0.000582 1/K	0.000578 1/K	0.000569 1/K
338.15 K	0.000646 1/K	0.000635 1/K	0.000625 1/K	0.000615 1/K	0.000605 1/K	0.000597 1/K	0.000587 1/K	0.00058 1/K	0.000573 1/K	0.000566 1/K
348.15 K	0.000653 1/K	0.000639 1/K	0.000623 1/K	0.000613 1/K	0.000604 1/K	0.000595 1/K	0.000586 1/K	0.000578 1/K	0.000569 1/K	0.000563 1/K

CCCCn1cc[n+](C)c1.COS(=O)(=O)[O-] [1-butyl-3-methylimidazolium methyl sulfate]
isobaric coefficient of expansion
Settings	5000 kPa	10000 kPa	15000 kPa	20000 kPa	25000 kPa	30000 kPa	35000 kPa	40000 kPa	45000 kPa	50000 kPa
278.15 K	0.000563 1/K	0.000556 1/K	0.00055 1/K	0.000545 1/K	0.00054 1/K	0.000535 1/K	0.000531 1/K	0.000527 1/K	0.000521 1/K	0.000516 1/K
288.15 K	0.000557 1/K	0.00055 1/K	0.000543 1/K	0.000539 1/K	0.000537 1/K	0.00053 1/K	0.000527 1/K	0.00052 1/K	0.000514 1/K	0.000513 1/K
298.15 K	0.000549 1/K	0.000547 1/K	0.000539 1/K	0.000533 1/K	0.000529 1/K	0.000524 1/K	0.000518 1/K	0.000513 1/K	0.00051 1/K	0.000507 1/K
308.15 K	0.000544 1/K	0.000538 1/K	0.000533 1/K	0.000527 1/K	0.000522 1/K	0.000517 1/K	0.000512 1/K	0.000509 1/K	0.000504 1/K	0.0005 1/K
318.15 K	0.000538 1/K	0.000534 1/K	0.00053 1/K	0.000522 1/K	0.000517 1/K	0.000513 1/K	0.000508 1/K	0.000504 1/K	0.000499 1/K	0.000494 1/K
328.15 K	0.000533 1/K	0.000529 1/K	0.000524 1/K	0.000519 1/K	0.000512 1/K	0.000508 1/K	0.000503 1/K	0.000498 1/K	0.000493 1/K	0.000489 1/K
338.15 K	0.00053 1/K	0.000525 1/K	0.000521 1/K	0.000514 1/K	0.000508 1/K	0.000506 1/K	0.000499 1/K	0.000496 1/K	0.000491 1/K	0.000489 1/K
348.15 K	0.000527 1/K	0.000524 1/K	0.000517 1/K	0.000512 1/K	0.000506 1/K	0.000502 1/K	0.000499 1/K	0.000494 1/K	0.00049 1/K	0.000486 1/K

From the NIST ThermoML archive (doi:10.1021/je900407u)
